Here are results for 45 molecules from ChEMBL document CHEMBL1144475, “Design, synthesis, and evaluation of inhibitors for severe acute respiratory syndrome 3C-like protease based on phthalhydrazide ketones or heteroaromatic esters” (J Med Chem, 2007).

Molecules are shown by their SMILES. Non-standard residues stand in square brackets, D forms with d. Residues, ends and D or L forms follow the SMILES beside them. *: point of attachment. Ala(2-oxopyrrolidin-3S-yl) = N[C@@H](C[C@@H]1CCNC1=O)C(=O)O; X1 = Clc1cncc(O*)c1; Bn = c1ccc(C*)cc1 Some results are limits rather than exact numbers.

The target in one experiment is Replicase polyprotein 1a (Severe acute respiratory syndrome-related coronavirus) (UniProt P0C6U8). The experiment is described as follows: Inhibition of SARS coronavirus 3C-like protease at 1 uM.
The inhibition is the drop in the measured response relative to a control, in per cent. Read a high inhibition as a response far below the control. `O=C(Oc1cncc(Cl)c1)c1cc2ccccc2[nH]1` had an inhibition of 99%.

In turn, `COc1cccc(C(=O)Oc2cncc(Cl)c2)c1` came in with an inhibition of 97%. The molecule `O=C(Oc1cncc(Cl)c1)c1ccc(-c2ccc(Cl)cc2)o1` had an inhibition of 98%.

The molecule `O=C(Oc1cncc(Br)c1)c1ccco1` had an inhibition of 98%.

As to `O=C(Oc1cncc(Cl)c1)c1cc2ccccc2s1`, the inhibition was found to be 96%. As for `O=C(Oc1cncc(Cl)c1)c1cscn1`, the inhibition is 98%.

The target of a further experiment is Replicase polyprotein 1a (Severe acute respiratory syndrome-related coronavirus, UniProt P0C6U8). In words: Inhibition of SARS coronavirus 3C-like protease.
The IC50 is the concentration needed to halve the response being measured. Read a low IC50 as inhibition by little substance. As to `O=C(Oc1cncc(Cl)c1)c1cc2ccccc2[nH]1`, inhibition was half-maximal at 65 nM (IC50). Same read-out and setting: the figure for `O=C(Oc1cncc(Cl)c1)c1ccco1` is 60 nM; for `O=C(Oc1cncc(Cl)c1)c1ccc(-c2ccc(Cl)cc2)o1` it is 63 nM.

In turn, `O=C(Oc1cncc(Br)c1)c1ccco1` yielded an IC50 of 50 nM. Same read-out and setting: the figure for `O=C(Oc1cncc(Cl)c1)c1cc2ccccc2s1` is 95 nM; for `O=C(Oc1cncc(Cl)c1)c1cscn1` it is 270 nM; for `O=C(Oc1cncc(Cl)c1)c1cc2ccccc2o1` it is 170 nM.

A further experiment has as its target Replicase polyprotein 1a (Severe acute respiratory syndrome-related coronavirus) (UniProt P0C6U8). The experiment is described as follows: Inhibition of SARS coronavirus His-3C-like protease at 100 uM.
Molecule `Cc1ccc(OC(=O)c2cccs2)nc1` gave an inhibition of less than 10%. In turn, `O=C(Oc1cncc(Cl)c1)c1ccoc1` gave an inhibition of 89%. For `O=C(Oc1cccc(Cl)n1)c1cccs1`, the inhibition was less than 10%.

For `Cc1cccc(OC(=O)c2cccs2)n1`, the inhibition was 38%. The same measure, in the same setting: the figure for `O=C(Oc1ccc(Cl)nc1)c1cccs1` is 13%. `O=C(Nc1ccccn1)c1cccs1` had an inhibition of less than 10%.

`O=C(OCc1cccnc1)c1cccs1` registered an inhibition of 19%. On the same count and under the same terms, as for `O=C(Nc1cccnc1)c1cccs1`, the figure is 13%. Still for that read-out and setting: as for `O=C(Nc1ccc(F)cn1)c1cccs1`, the figure is less than 10%; as for `CC(=O)N[C@H](C(=O)N[C@H](C(=O)N[C@@H](CC(C)C)C(=O)N[C@@H](C[C@@H]1CCNC1=O)C(=O)Oc1cncc(Cl)c1)[C@@H](C)OCc1ccccc1)C(C)C` (Ac-VT(Bn)L[Ala(2-oxopyrrolidin-3S-yl)]-X1), less than 10%. The molecule `O=C(Cc1cccnc1)c1cccs1` registered an inhibition of less than 10%. Still for that read-out and setting: as for `O=Cc1cscn1`, the figure is 36%.

`O=C(OCc1cncc(Br)c1)c1ccco1`: the inhibition worked out at 90%.

For `O=Cc1ccco1`, the inhibition stood at 23%. Same read-out and setting: as for `Cc1ccc(OC(=O)c2cccs2)c([N+](=O)[O-])n1`, the figure is 15%. On the same count and under the same terms, as for `O=C(Cc1cncc(Br)c1)c1ccco1`, the figure is less than 10%.

The molecule `O=C(Oc1cncc(Cl)c1)c1ccccc1` came in with an inhibition of 92%. The molecule `O=Cc1ccc(-c2ccc(Cl)cc2)o1` came in with an inhibition of 70%. For the molecule `CC(=O)N[C@H](C(=O)N[C@H](C(=O)N[C@@H](CC(C)C)C(=O)N[C@@H](C[C@@H]1CCNC1=O)C(=O)c1cccs1)[C@@H](C)O)C(C)C`, the inhibition was 23%.

Turning to `O=C(Oc1ccccn1)c1cccs1`, the inhibition came to 13%. The same measure, in the same setting: as for `O=C(Oc1ccco1)c1cccnc1`, the figure is 80%; as for `O=C(Nc1ccncc1)c1cccs1`, less than 10%. Same read-out and setting: as for `O=C(Oc1cncc(Cl)c1)c1ccco1`, the figure is 99%. Still for that read-out and setting: as for `O=S(=O)(Nc1cccnc1)c1cccs1`, the figure is less than 10%; as for `O=C(Nc1cccnc1Cl)c1cccs1`, less than 10%.

As to `O=C(Oc1cncc(Br)c1)c1ccco1`, the inhibition is 99%. On the same count and under the same terms, the figure for `CC(=O)N[C@H](C(=O)N[C@H](C(=O)N[C@@H](CC(C)C)C(=O)N[C@@H](C[C@@H]1CCNC1=O)C(=O)c1cccs1)[C@@H](C)OCc1ccccc1)C(C)C` is less than 10%; for `O=C(Nc1ccc(Cl)cn1)c1cccs1` it is less than 10%; for `O=C(Oc1cccnc1Cl)c1cccs1` it is 20%. Same read-out and setting: as for `Clc1cncc(OCc2ccco2)c1`, the figure is 11%; as for `O=C(Oc1ccncc1)c1cccs1`, less than 10%; as for `O=C(Oc1cccc(Cl)c1)c1ccco1`, 40%. `O=C(Oc1cccnc1)c1cccs1`: the inhibition came out at 91%. `O=Cc1cccs1`: the inhibition was less than 10%.

The molecule `CC(=O)N[C@H](C(=O)N[C@H](C(=O)N[C@@H](CC(C)C)C(=O)N[C@@H](Cc1ccccc1)C(=O)Cn1[nH]c(=O)c2ccccc2c1=O)[C@@H](C)OCc1ccccc1)C(C)C` yielded an inhibition of 72%. Same read-out and setting: the figure for `Cc1ccc(OC(=O)c2cccs2)cn1` is less than 10%; for `O=C(Oc1cncc(Cl)c1)c1ccc[nH]1` it is 65%; for `O=C(Oc1cncc(Cl)c1)c1cc2ccccc2o1` it is 94%. In turn, `O=Cc1cc2ccccc2[nH]1` came in with an inhibition of 39%.

In turn, `Cc1ncccc1OC(=O)c1cccs1` had an inhibition of less than 10%.
